Reference: patent US20200216441A1, “PESTICIDALLY ACTIVE HETEROCYCLIC DERIVATIVES WITH SULFUR CONTAINING SUBSTITUENTS” (SYNGENTA PARTICIPATIONS AG, priority 2017, published 2020)

What was measured:
[1] = tested on: Diabrotica Balteata (Corn Root Worm); assay: Diabrotica balteata (Corn Root Worm); conditions: in Zea mays, 96 h, read-out: effect in at least one of the two categories (mortality or growth inhibition)
[2] = tested on: Myzus persicae (Green Peach Aphid); assay: whole plant or invertebrate; format: in vivo; conditions: 144 h, test rate of 24 ppm, systemic, roots of infested pea seedlings in test solution, 6 days
[3] = tested on: Spodoptera littoralis (Egyptian Cotton Leaf Worm); assay: Spodoptera littoralis (Egyptian Cotton Leaf Worm), uptake by lettuce roots from agar; format: in vivo; conditions: 144 h, test rate of 12.5 ppm, compound in agar absorbed by lettuce roots, 6 days after infestation, read-out: effect in at least one of the three categories (mortality, anti-feeding, or growth inhibition)
Excerpt: Example B10: Spodoptera littoralis (Egyptian Cotton Leaf Worm)
Test compounds were applied by pipette from 10′000 ppm DMSO stock solutions into 24-well plates and mixed with agar. Lettuce seeds were placed onto the agar and the multi well plate was closed by another plate which contained also agar. After 7 days the compound was absorbed by the roots and the lettuce grew into the lid plate. The lettuce leaves were then cut off into the lid plate. Spodoptera eggs were pipetted through a plastic stencil onto a humid gel blotting paper and the lid plate was closed with it.

[4] = tested on: Myzus persicae (Green Peach Aphid); assay: whole plant or invertebrate; conditions: foliar, 144 h
[5] = tested on: Plutella xylostella (Diamond Back Moth); assay: whole plant or invertebrate; format: in vivo; conditions: 120 h, application rate of 200 ppm, L2 larvae on treated artificial diet, 5 days after infestation, read-out: effect in at least one of the two categories (mortality or growth inhibition)
[6] = tested on: Spodoptera littoralis (Egyptian Cotton Leaf Worm); assay: whole plant or invertebrate; conditions: in Gossypium barbadense, foliar, 72 h, read-out: control (mortality, anti-feeding effect, growth inhibition)
[7] = tested on: Euschistus heros (Neotropical Brown Stink Bug); assay: whole plant or invertebrate; format: in vivo; conditions: 120 h, application rate of 200 ppm, N2 nymphs on sprayed soybean leaves, 5 days after infestation, read-out: effect in at least one of the two categories (mortality or growth inhibition)
[8] = tested on: Tetranychus urticae (Two-Spotted Spider Mite); conditions: foliar, 192 h
[9] = tested on: Bemisia tabaci (Cotton White Fly); conditions: in Gossypium hirsutum, foliar, 144 h
[10] = tested on: Frankliniella occidentalis (Western Flower Thrips); conditions: foliar, 168 h
[11] = tested on: Myzus persicae (Green Peach Aphid); assay: Myzus persicae (Green Peach Aphid). Intrinsic Activity; conditions: 120 h

CCS(=O)(=O)c1cc(OCC2CC2)cnc1-c1nc2cc(C(F)(F)F)ncc2n1C [Compound P24, 2-[5-(cyclopropylmethoxy)-3-ethylsulfonyl-2-pyridyl]-3-methyl-6-(trifluoromethyl)imidazo[4,5-c]pyridine]
≥ 80%: mortality at 200 ppm [1] | mortality at 24 ppm [2] | percent effect (mortality, anti-feeding or growth inhibition) at 12.5 ppm [3] | mortality at 200 ppm [4] | percent effect (mortality or growth inhibition) at 200 ppm [5] | mortality at 200 ppm [6] | percent effect (mortality or growth inhibition) at 200 ppm [7]

CCS(=O)(=O)c1cc(OC(F)(F)Br)cnc1-c1nc2cc(C(F)(F)F)ncc2n1C [Compound P99, 2-[5-[bromo(difluoro)methoxy]-3-ethylsulfonyl-2-pyridyl]-3-methyl-6-(trifluoromethyl)imidazo[4,5-c]pyridine]
≥ 80%: mortality at 200 ppm [1] | percent effect (mortality, anti-feeding or growth inhibition) at 12.5 ppm [3] | mortality at 200 ppm [8] | percent effect (mortality or growth inhibition) at 200 ppm [5] | mortality at 200 ppm [6] | percent effect (mortality or growth inhibition) at 200 ppm [7]

CCS(=O)(=O)c1cc(OC(C)C)cnc1-c1nc2cc(C(F)(F)F)ncc2n1C [Compound P28, 2-(3-ethylsulfonyl-5-isopropoxy-2-pyridyl)-3-methyl-6-(trifluoromethyl)imidazo[4,5-c]pyridine]
≥ 80%: mortality at 200 ppm [1] | mortality at 24 ppm [2] | percent effect (mortality, anti-feeding or growth inhibition) at 12.5 ppm [3] | mortality at 200 ppm [4] | percent effect (mortality or growth inhibition) at 200 ppm [5] | mortality at 200 ppm [9] | mortality at 200 ppm [6] | percent effect (mortality or growth inhibition) at 200 ppm [7]

CCS(=O)(=O)c1cc(OC(C)(C)C#N)cnc1-c1nc2cc(C(F)(F)F)ncc2n1C [Compound P18, 2-[[5-ethylsulfonyl-6-[3-methyl-6-(trifluoromethyl)imidazo[4,5-c]pyridin-2-yl]-3-pyridyl]oxy]-2-methyl-propanenitrile]
≥ 80%: mortality at 200 ppm [1] | mortality at 24 ppm [2] | percent effect (mortality, anti-feeding or growth inhibition) at 12.5 ppm [3] | mortality at 200 ppm [4] | mortality at 200 ppm [8] | mortality at 200 ppm [10] | percent effect (mortality or growth inhibition) at 200 ppm [5] | mortality at 200 ppm [9] | mortality at 200 ppm [6] | percent effect (mortality or growth inhibition) at 200 ppm [7]

CCSc1cc(OC(C)(C)C#N)cnc1-c1nc2cc(C(F)(F)F)ncc2n1C [Compound P19, 2-[[5-ethylsulfanyl-6-[3-methyl-6-(trifluoromethyl)imidazo[4,5-c]pyridin-2-yl]-3-pyridyl]oxy]-2-methyl-propanenitrile]
≥ 80%: mortality at 200 ppm [1] | mortality at 12 ppm [11] | mortality at 200 ppm [4] | mortality at 200 ppm [8] | percent effect (mortality or growth inhibition) at 200 ppm [5] | mortality at 200 ppm [9] | mortality at 200 ppm [6] | percent effect (mortality or growth inhibition) at 200 ppm [7]

CCS(=O)(=O)c1cc(OC(C)(C)C#N)ccc1-c1nc2cc(C(F)(F)F)ncc2n1C [Compound P103, 2-[3-ethylsulfonyl-4-[3-methyl-6-(trifluoromethyl)imidazo[4,5-c]pyridin-2-yl]phenoxy]-2-methyl-propanenitrile]
≥ 80%: mortality at 200 ppm [1] | mortality at 24 ppm [2] | mortality at 200 ppm [4] | mortality at 200 ppm [8] | mortality at 200 ppm [10] | percent effect (mortality or growth inhibition) at 200 ppm [5] | mortality at 200 ppm [9] | mortality at 200 ppm [6] | percent effect (mortality or growth inhibition) at 200 ppm [7]

CCS(=O)(=O)c1cc(OC(CF)CF)cnc1-c1nc2cc(C(F)(F)F)ncc2n1C [Compound P53, 2-[3-ethylsulfonyl-5-[2-fluoro-1-(fluoromethyl)ethoxy]-2-pyridyl]-3-methyl-6-(trifluoromethyl)imidazo[4,5-c]pyridine]
≥ 80%: mortality at 200 ppm [1] | mortality at 24 ppm [2] | mortality at 200 ppm [4] | mortality at 200 ppm [8] | mortality at 200 ppm [10] | percent effect (mortality or growth inhibition) at 200 ppm [5] | mortality at 200 ppm [9] | mortality at 200 ppm [6] | percent effect (mortality or growth inhibition) at 200 ppm [7]

CCS(=O)(=O)c1cc(ON=C(C)C)cnc1-c1nc2cc(C(F)(F)F)ncc2n1C [Compound P97, N-[[5-ethylsulfonyl-6-[3-methyl-6-(trifluoromethyl)imidazo[4,5-c]pyridin-2-yl]-3-pyridyl]oxy]propan-2-imine]
≥ 80%: mortality at 200 ppm [1] | percent effect (mortality, anti-feeding or growth inhibition) at 12.5 ppm [3] | mortality at 200 ppm [4] | percent effect (mortality or growth inhibition) at 200 ppm [5] | mortality at 200 ppm [9] | mortality at 200 ppm [6] | percent effect (mortality or growth inhibition) at 200 ppm [7]
